{"source": "patent US11725000B2", "about": "“Apoptosis inhibitors” (National Institute of Biological Sciences, Beijing, priority 2017, dated 2023)", "data": [{"test_system": "U2OS_Bim cells", "assay": "Apoptosis inhibition assay (Bim-induced apoptosis, cell viability by ATP level)", "format": "cell-based", "details": "U2OS_Bim cells; estimated (*Est.) / preliminary results; numbering of Tables 4a/4b; read-out: EC50", "description": "(§1) A chemical library containing 200000 compounds was screened according to the following procedure: U2OS_Bim cells (a cell line in which the BH3-only protein Bim can be inducibly expressed by the addition of Doxycycline to the growth medium)^[2] were plated in 384-well plates with 30 μl medium at a density of 500 cells per well. 16 hrs after plating, test compounds were transferred from stock plates to the assay plates with the cultured cells. Positive control (20 μM zVAD) and negative control (DMSO) were added to every plate. 1 hr after compound treatment, 0.1 ug/mL Doxycyclin (DOX) was added to induce the expression of the Bim protein. After 24 hrs, cell viability was determined by measuring the ATP levels using a Cell Titer-Glo kit (Promega, G7570) according to the manufacturer's instructions. Luminescence was recorded with a PerkinElmer EnSpire Multimode Plate Reader. Compounds that could rescue cell viability to a level above 50% were selected; these compounds were then screened a second time for assurance.\n(§2) U2OS_Bim or U2OS_tBid cells were plated at a density of 3000 cells per well in 96-well plates. 24 hrs later, cells were treated with experimental compounds, zVAD (positive control) and DMSO (Negative control) for one hour. The cells were then treated with 0.1 μg/mL DOX to trigger apoptosis. 24 hours after the addition of DOX, cell viability was determined by measuring the ATP levels using a Cell Titer-Glo kit. Cell survival rate was calculated.\n(§3) U2OS_Bim cells (a U2OS stable cell line transfected with a Bim transgene) were cultured in DMEM culture medium (Gibico). On day one, U2OS_Bim cells were plated in 96-well plates at a density of 3000 cells per well. On day two, cells were pretreated with compounds for one hour. Then cells were treated with 0.1 μg/mL doxycycline (DOX) to trigger apoptosis. 24 hours after DOX treatment, cell viability was determined by measuring the ATP levels using the Cell Titer-Glo kit (G7570, Promega), according to the manufacturer's instructions. Luminescence was recorded with a PerkinElmer EnSpire Multimode Plate Reader. Survived cells were normalized to those cells treated with DMSO. zVAD (20 μM) was used as a positive control. Activity data for compounds […] are represented as means f standard deviation of duplicates; activity data for compounds 187-274 are estimated based on preliminary results.", "units": {"EC50": "nM"}, "values": [{"smiles": "Cc1cc(-c2cc(F)c(=O)n(Cc3ccc4ccn(C)c4c3)c2)nc(S(=O)(=O)CCC(OCc2ccccc2F)c2ccccc2)n1", "note": "(centres unmarked) [Compound 348]", "EC50": "1 to 1000"}, {"smiles": "Cc1cc(-c2cc(F)c(=O)n(Cc3ccc4c(c3)OCN4C)c2)nc(S(=O)(=O)CCC(OCc2ccccc2F)c2ccccc2)n1", "note": "(centres unmarked) [Compound 353]", "EC50": "1 to 1000"}, {"smiles": "Cc1cc(-c2cc(F)c(=O)n(Cc3ccc4c(c3)OCO4)c2)nc(S(=O)(=O)CCCN(c2ccccc2)C(C)(C)C)n1", "note": "[Compound 377]", "EC50": "1 to 1000"}, {"smiles": "Cc1cc(-c2cc(F)c(=O)n(Cc3ccc4c(c3)OCO4)c2)nc(S(=O)(=O)CCCN2C(=O)Cc3ccccc32)n1", "note": "[Compound 362]", "EC50": "1 to 1000"}, {"smiles": "Cc1cc(-c2cc(F)c(=O)n(Cc3ccc4c(c3)OCO4)c2)nc(S(=O)(=O)CCC(OCC2CCCC2)c2ccccc2)n1", "note": "(centres unmarked) [Compound 412]", "EC50": "1 to 1000"}, {"smiles": "Cc1cc(-c2cc(F)c(=O)n(Cc3ccnc(N(C)CO)c3)c2)nc(S(=O)(=O)CCC(OCc2ccccc2F)c2ccccc2)n1", "note": "(centres unmarked) [Compound 361]", "EC50": "1 to 1000"}, {"smiles": "Cc1cc(-c2cc(F)c(=O)n(Cc3ccc4nnn(C)c4c3)c2)nc(S(=O)(=O)CCCC(=O)NC23CC4CC(CC(C4)C2)C3)n1", "note": "[Compound 365]", "EC50": "1 to 1000"}, {"smiles": "Cc1cc(-c2cc(F)c(=O)n(Cc3ccc4c(c3)OCO4)c2)nc(S(=O)(=O)CCCn2c(=O)oc3ccccc32)n1", "note": "[Compound 366]", "EC50": "1 to 1000"}]}, {"test_system": "U2OS_Bim cells", "assay": "Apoptosis inhibition assay (Bim-induced apoptosis, cell viability by ATP level)", "format": "cell-based", "details": "U2OS_Bim cells; estimated based on preliminary results; numbering of Tables 4a/4b; read-out: EC50", "description": "as §1, §2, §3", "units": {"EC50": "nM"}, "values": [{"smiles": "COc1ccc(Cn2cc(-c3cc(CF)nc([S+](C)[O-])n3)ccc2=O)cc1OC", "note": "(centres unmarked) [Compound 203, 1-(3,4-dimethoxybenzyl)-5-(6-(fluoromethyl)-2-(methylsulfinyl)pyrimidin-4-yl)pyridin-2 (1H)-one]", "EC50": "< 10000"}, {"smiles": "CCc1cc(Cn2cc(-c3cc(C(F)(F)F)nc([S+](C)[O-])n3)ccc2=O)ccc1OC", "note": "(centres unmarked) [Compound 263]", "EC50": "< 10000"}, {"smiles": "COc1ccc(Cn2cc(-c3cc(-c4nccs4)nc(S(C)(=O)=O)n3)ccc2=O)cc1OC", "note": "[Compound 217]", "EC50": "< 10000"}, {"smiles": "CS(=O)(=O)c1nc(-c2ccc(=O)n(Cn3ccc4ccccc43)c2)cc(C(F)(F)F)n1", "note": "[Compound 256]", "EC50": "< 10000"}, {"smiles": "COc1ccc(Cn2cc(-c3cc(-c4nccs4)nc([S+](C)[O-])n3)ccc2=O)cc1OC", "note": "(centres unmarked) [Compound 213]", "EC50": "< 10000"}, {"smiles": "CNc1ccc(Cn2cc(-c3cc(C(F)(F)F)nc([S+](C)[O-])n3)ccc2=O)cc1NC", "note": "(centres unmarked) [Compound 233]", "EC50": "< 10000"}]}, {"test_system": "U2OS_Bim cells", "assay": "Apoptosis inhibition assay (Bim-induced apoptosis, cell viability by ATP level)", "format": "cell-based", "details": "U2OS_Bim cells; means of duplicates; numbering of Tables 4a/4b; read-out: EC50", "description": "as §1, §2, §3", "units": {"EC50": "nM"}, "values": [{"smiles": "C#Cc1cccc(Cn2cc(-c3cc(C(F)(F)F)nc([S+](C)[O-])n3)ccc2=O)c1", "note": "(centres unmarked) [Compound 121, 1-(3-ethynylbenzyl)-5-(2-(methylsulfinyl)-6-(trifluoromethyl)pyrimidin-4-yl)pyridin-2 (1H)-one]", "EC50": "1 to 1000"}, {"smiles": "C[S+]([O-])c1nc(N2CCOCC2)cc(C(F)(F)F)n1", "note": "(centres unmarked) [Compound 82, 4-(2-(methylsulfinyl)-6-(trifluoromethyl)pyrimidin-4-yl)morpholine]", "EC50": "< 100000"}, {"smiles": "Cc1cc(-c2cc(F)c(=O)n(Cc3cccc4c3OCO4)c2)nc(S(=O)(=O)CCC(OCc2ccccc2F)c2ccccc2)n1", "note": "(centres unmarked) [Compound 320, 1-(benzo[d][1,3]dioxol-4-ylmethyl)-3-fluoro-5-(2-(3-(2-fluorobenzyloxy)-3-phenylpropylsulfonyl)-6-methylpyrimidin-4-yl)pyridin-2 (1H)-one]", "EC50": "1 to 1000"}, {"smiles": "COc1ccc(Cn2cc(-c3cc(C(F)F)nc([S+]([O-])CCC(OCc4ccccc4)c4ccccc4)n3)ccc2=O)cc1OC", "note": "(centres unmarked) [Compound 277, 5-(2-((3-(benzyloxy)-3-phenylpropyl)sulfinyl)-6-(difluoromethyl)pyrimidin-4-yl)-1-(3,4-dimethoxybenzyl)pyridin-2 (1H)-one]", "EC50": "1 to 1000"}, {"smiles": "C[S+]([O-])c1nc(-c2ccn(Cc3ccc(Cl)cc3)c2)cc(C(F)(F)F)n1", "note": "(centres unmarked) [Compound 96, 4-(1-(4-chlorobenzyl)-1H-pyrrol-3-yl)-2-(methylsulfinyl)-6-(trifluoromethyl)pyrimidine]", "EC50": "< 100000"}, {"smiles": "COc1cccc(Cn2ccc(-c3cc(C(F)(F)F)nc(S(C)(=O)=O)n3)c2)c1", "note": "[Compound 89, 4-(1-(3-methoxybenzyl)-1H-pyrrol-3-yl)-2-(methylsulfonyl)-6-(trifluoromethyl)pyrimidine]", "EC50": "< 100000"}, {"smiles": "Cc1cc(-c2cc(F)c(=O)n(Cc3ccc4ocnc4c3)c2)nc(S(=O)(=O)CCC(OCc2ccccc2F)c2ccccc2)n1", "note": "(centres unmarked) [Compound 329, 1-(benzo[d]oxazol-5-ylmethyl)-3-fluoro-5-(2-((3-((2-fluorobenzyl)oxy)-3-phenylpropyl)sulfonyl)-6-methylpyrimidin-4-yl)pyridin-2 (1H)-one]", "EC50": "1 to 1000"}, {"smiles": "C#CCCS(=O)(=O)c1nc(-c2ccc(=O)n(Cc3ccc(OC)c(OC)c3)c2)cc(C(F)(F)F)n1", "note": "[Compound 141, 5-(2-(but-3-yn-1-ylsulfonyl)-6-(trifluoromethyl)pyrimidin-4-yl)-1-(3,4-dimethoxybenzyl)pyridin-2 (1H)-one]", "EC50": "1 to 1000"}, {"smiles": "CS(=O)(=O)c1nc(-c2cccs2)cc(-n2ccccc2=O)n1", "note": "[Compound 39, 1-(2-(methylsulfonyl)-6-(thiophen-2-yl)pyrimidin-4-yl)pyridine-2 (1H)-one]", "EC50": "< 100000"}, {"smiles": "CS(=O)(=O)c1nc(-c2ccc[nH]2)cc(C(F)(F)F)n1", "note": "[Compound 84, 2-(methylsulfonyl)-4-(1H-pyrrol-2-yl)-6-(trifluoromethyl)pyrimidine]", "EC50": "1000 to 10000"}, {"smiles": "COc1cccc(CS(=O)(=O)c2nc(-c3ccc(=O)n(Cc4ccc(OC)c(OC)c4)c3)cc(C(F)F)n2)c1", "note": "[Compound 172, 5-(6-(difluoromethyl)-2-((3-methoxybenzyl)sulfonyl)pyrimidin-4-yl)-1-(3,4-dimethoxybenzyl)pyridin-2 (1H)-one]", "EC50": "1 to 1000"}, {"smiles": "COc1ccc(-c2cc(C(F)(F)F)nc(S(C)(=O)=O)n2)cc1", "note": "[Compound 53, 4-(4-methoxyphenyl)-2-(methylsulfonyl)-6-(trifluoromethyl)pyrimidine]", "EC50": "< 100000"}, {"smiles": "COc1ccc(Cn2cc(-c3cc(C(F)(F)F)nc([S+]([O-])CCC(OCc4ccccc4)c4ccccc4)n3)ccc2=O)cc1OC", "note": "(centres unmarked) [Compound 280, 5-(2-((3-(benzyloxy)-3-phenylpropyl)sulfinyl)-6-(trifluoromethyl)pyrimidin-4-yl)-1-(3,4-dimethoxybenzyl)pyridin-2 (1H)-one]", "EC50": "1 to 1000"}, {"smiles": "COc1ccc(Cn2cc(-c3cc(C(F)(F)F)nc(S(=O)(=O)CCCC(N)=O)n3)ccc2=O)cc1OC", "note": "[Compound 158, 4-((4-(1-(3,4-dimethoxybenzyl)-6-oxo-1,6-dihydropyridin-3-yl)-6-(trifluoromethyl)pyrimidin-2-yl)sulfonyl)butanamide]", "EC50": "< 100000"}, {"smiles": "CNC(=O)CCCS(=O)(=O)c1nc(-c2ccc(=O)n(Cc3ccc(OC)c(OC)c3)c2)cc(C(F)F)n1", "note": "[Compound 176, 4-((4-(difluoromethyl)-6-(1-(3,4-dimethoxybenzyl)-6-oxo-1,6-dihydropyridin-3-yl)pyrimidin-2-yl)sulfonyl)-N-methylbutanamide]", "EC50": "1000 to 10000"}, {"smiles": "C#CCOc1cccc(-c2cc(C(F)(F)F)nc(S(C)(=O)=O)n2)c1", "note": "[Compound 71, 2-(methylsulfonyl)-4-(3-(prop-2-yn-1-yloxy)phenyl)-6-(trifluoromethyl) pyrimidine]", "EC50": "< 100000"}, {"smiles": "COc1ccc(Cn2cc(-c3cc(-c4ccccc4F)nc(S(C)(=O)=O)n3)ccc2=O)cc1OC", "note": "[Compound 296, 1-(3,4-dimethoxybenzyl)-5-(6-(2-fluorophenyl)-2-(methylsulfonyl)pyrimidin-4-yl)pyridin-2 (1H)-one]", "EC50": "1000 to 10000"}, {"smiles": "COc1ccc(Cn2cc(-c3cc(-n4cccn4)nc(S(C)(=O)=O)n3)ccc2=O)cc1OC", "note": "[Compound 139, 1-(3,4-dimethoxybenzyl)-5-(2-(methylsulfonyl)-6-(1H-pyrazol-1-yl)pyrimidin-4-yl)pyridin-2 (1H)-one]", "EC50": "1000 to 10000"}, {"smiles": "CS(=O)(=O)c1nc(-c2ccccc2F)cc(C(F)(F)F)n1", "note": "[Compound 43, 4-(2-fluorophenyl)-2-(methylsulfonyl)-6-(trifluoromethyl)pyrimidine]", "EC50": "1000 to 20000"}, {"smiles": "COc1ccc(Cn2cc(-c3cc(C)nc(S(=O)(=O)CCC(C)OCc4ccccc4F)n3)cc(F)c2=O)cc1F", "note": "(centres unmarked) [Compound 305, 3-fluoro-1-(3-fluoro-4-methoxybenzyl)-5-(2-((3-((2-fluorobenzyl)oxy)butyl)sulfonyl)-6-methylpyrimidin-4-yl)pyridin-2 (1H)-one]", "EC50": "1 to 1000"}, {"smiles": "CCOc1cccc(Cn2cc(-c3cc(C)nc(S(=O)(=O)CCC(OCc4ccc(F)cc4F)c4ccccc4)n3)cc(F)c2=O)c1", "note": "(centres unmarked) [Compound 311, 5-(2-((3-((2,4-difluorobenzyl)oxy)-3-phenylpropyl)sulfonyl)-6-methylpyrimidin-4-yl)-1-(3-ethoxybenzyl)-3-fluoropyridin-2 (1H)-one]", "EC50": "1 to 1000"}]}]}
